Source: patent US20240018161A1, “MODULATORS OF CYSTIC FIBROSIS TRANSMEMBRANE CONDUCTANCE REGULATOR” (VERTEX PHARMACEUTICALS INCORPORATED, priority 2020, published 2024)
Like-named read-outs stand apart in the source and are kept apart here.

Target: CFTR-mediated chloride transport in human intestinal epithelial enteroid cells (Homo sapiens, UniProt P13569)
Experiment: Membrane potential dye, Enteroid Assay A
Format: cell-based
Settings: for EC50: read-out: Ent. A EC50
Experimental: Base medium (ADF+++) consisted of Advanced DMEM/Ham's F12, 2 mM Glutamax, 10 mM HEPES, […] penicillin/streptomycin.
Bath 1 Buffer consisted of 1 mM MgCl2, 160 mM NaCl, 4.5 mM KCl, 10 mM HEPES, 10 mM Glucose, 2 mM CaCl2.
Chloride Free Buffer consisted of 1 mM Magnesium Gluconate, 2 mM Calcium Gluconate, 4.5 mM Potassium Gluconate, 160 mM Sodium Gluconate, 10 mM HEPES, 10 mM Glucose.
Bath1 Dye Solution consisted of Bath 1 Buffer, 0.04% Pluronic F127, 20 μM Methyl Oxonol, 30 μM CaCCinh-A01, 30 μM Chicago Sky Blue.
Chloride Free Dye Solution consisted of Chloride Free Buffer, 0.04% Pluronic F127, 20 μM Methyl Oxonol, 30 μM CaCCinh-A01, 30 μM Chicago Sky Blue.
3. Enteroid Cell Harvesting and Seeding
Cells were recovered in cell recovery solution, collected by centrifugation at 650 rpm for 5 min at 4° C., resuspended in TryPLE and incubated for 5 min at 37° C. Cells were then collected by centrifugation at 650 rpm for 5 min at 4° C. and resuspended in IEMM containing 10 μM ROCK inhibitor (RI).
4. Membrane Potential Dye, Enteroid Assay A
Briefly, cells were washed 5 times in Bath 1 Buffer. Bath 1 Dye Solution was added, and the cells were incubated for 25 min at room temperature. Following dye incubation, cells were washed 3 times in Chloride Free Dye Solution. Chloride transport was initiated by addition of Chloride Free Dye Stimulation Solution and the fluorescence signal was read for 15 min. […] Chloride transport was then expressed as a percentage of the chloride transport following treatment with 3 μM N-[(6-amino-2-pyridyl)sulfonyl]-6-(3-fluoro-5-isobutoxy-phenyl)-2-[(4S)-2,2,4-trimethylpyrrolidin-1-yl]pyridine-3-carboxamide, 3 μM (R)-1-(2,2-difluorobenzo[d][1,3]dioxol-5-yl)-N-(1-(2,3-dihydroxypropyl)-6-fluoro-2-(1-hydroxy-2-methylpropan-2-yl)-1H-indol-5-yl)cyclopropanecarboxamide and 300 nM acute N-[2,4-bis(1,1-dimethylethyl)-5-hydroxyphenyl]-1,4-dihydro-4-oxoquinoline-3-carboxamide triple combination control (% Activity).

[1] = enteroid cells incubated with test compound 18-24 hours, acute 10 μM forskolin and 300 nM N-[2,4-bis(1,1-dimethylethyl)-5-hydroxyphenyl]-1,4-dihydro-4-oxoquinoline-3-carboxamide
[2] = percentage of chloride transport of triple combination control (3 μM N-[(6-amino-2-pyridyl)sulfonyl]-6-(3-fluoro-5-isobutoxy-phenyl)-2-[(4S)-2,2,4-trimethylpyrrolidin-1-yl]pyridine-3-carboxamide based)

Chain of CFTR-mediated chloride transport in human intestinal epithelial enteroid cells (P13569 with tags, fused parts or gaps DEL508-508): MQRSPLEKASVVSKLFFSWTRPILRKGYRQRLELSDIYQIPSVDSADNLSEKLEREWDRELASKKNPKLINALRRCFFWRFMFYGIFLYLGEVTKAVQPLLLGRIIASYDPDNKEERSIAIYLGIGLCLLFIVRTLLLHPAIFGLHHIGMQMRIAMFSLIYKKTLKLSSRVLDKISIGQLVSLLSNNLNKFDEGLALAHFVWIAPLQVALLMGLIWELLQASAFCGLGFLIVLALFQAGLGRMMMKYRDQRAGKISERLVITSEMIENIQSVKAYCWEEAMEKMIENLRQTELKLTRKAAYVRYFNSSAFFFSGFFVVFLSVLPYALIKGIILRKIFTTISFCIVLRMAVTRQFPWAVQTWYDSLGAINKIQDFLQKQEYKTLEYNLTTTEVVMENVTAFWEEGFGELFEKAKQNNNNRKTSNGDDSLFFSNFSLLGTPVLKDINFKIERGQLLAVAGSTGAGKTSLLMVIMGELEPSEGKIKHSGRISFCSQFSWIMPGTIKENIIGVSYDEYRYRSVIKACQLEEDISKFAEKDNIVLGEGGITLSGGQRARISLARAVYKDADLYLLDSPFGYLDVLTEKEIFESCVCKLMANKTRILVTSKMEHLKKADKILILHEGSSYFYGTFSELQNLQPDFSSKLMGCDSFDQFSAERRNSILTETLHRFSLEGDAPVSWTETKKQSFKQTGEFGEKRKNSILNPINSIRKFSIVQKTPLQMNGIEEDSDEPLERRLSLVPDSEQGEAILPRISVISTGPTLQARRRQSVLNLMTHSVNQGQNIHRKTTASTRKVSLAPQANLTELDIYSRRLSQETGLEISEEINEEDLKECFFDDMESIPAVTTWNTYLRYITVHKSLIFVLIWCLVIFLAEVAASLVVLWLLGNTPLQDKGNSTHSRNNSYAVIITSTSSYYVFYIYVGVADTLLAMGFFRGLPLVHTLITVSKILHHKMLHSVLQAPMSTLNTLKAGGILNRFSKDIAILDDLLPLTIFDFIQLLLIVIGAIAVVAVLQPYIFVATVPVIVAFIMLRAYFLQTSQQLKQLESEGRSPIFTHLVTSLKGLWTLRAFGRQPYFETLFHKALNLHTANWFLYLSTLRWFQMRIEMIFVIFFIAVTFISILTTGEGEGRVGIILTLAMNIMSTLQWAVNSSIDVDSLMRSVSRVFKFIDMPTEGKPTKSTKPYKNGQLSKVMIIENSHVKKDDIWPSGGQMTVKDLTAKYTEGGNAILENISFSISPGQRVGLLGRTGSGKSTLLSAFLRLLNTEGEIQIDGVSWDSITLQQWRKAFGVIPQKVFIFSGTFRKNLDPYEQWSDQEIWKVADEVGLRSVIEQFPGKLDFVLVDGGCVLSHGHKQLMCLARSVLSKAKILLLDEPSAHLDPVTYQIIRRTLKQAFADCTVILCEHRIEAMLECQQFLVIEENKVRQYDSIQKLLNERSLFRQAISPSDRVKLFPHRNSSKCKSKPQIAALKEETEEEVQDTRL

Compound	EC50 [1]	Ent. A Max Activity (%) [2]	Ent. A Max Activity (%) (Enteroid Assay A)	EC50 (Enteroid Assay A)
Cc1cccc(C)c1-c1cc2nc(n1)NS(=O)(=O)c1cccc(c1)C(=O)N1CCN(Cc3ccccc3)C[C@@H]1CO2 [Compound 164, (8R)-6-Benzyl-13-(2,6-dimethylphenyl)-10-oxa-17λ^6-thia-3,6,14,16,23-pentaazatetracyclo[16.3.1.111,15.03,8]tricosa-1(21),11,13,15(23),18(22),19-hexaene-2,17,17-trione]	< 1 µM	+++ (+++ is >60%)		
Cc1cccc(C)c1-c1cc2nc(n1)NS(=O)(=O)c1cccc(c1)C(=O)N1CCN(CC3CCOC(C)(C)C3)C[C@@H]1CO2 (some centres unmarked) [Compound 256]	< 1 µM	+++ (+++ is >60%)		
Cc1cccc(C)c1-c1cc2nc(n1)NS(=O)(=O)c1cccc(c1)C(=O)N1CCN(Cc3ccccc3)C[C@H](C1)O2 [Compound 67, (16R)-18-Benzyl-12-(2,6-dimethylphenyl)-15-oxa-8λ^6-thia-1,9,11,18,22-pentaazatetracyclo[14.4.1.13,7.110,14]tricosa-3(23),4,6,10(22),11,13-hexaene-2,8,8-trione]	< 1 µM	+++ (+++ is >60%)		
Cc1cccc(C)c1-c1cc2nc(n1)NS(=O)(=O)c1cccc(c1)C(=O)N1CCN(Cc3cccc(C#N)c3)C[C@@H]1CO2 [Compound 267]	1 to 3 µM	+++ (+++ is >60%)		
Cc1cccc(C)c1-c1cc2nc(n1)NS(=O)(=O)c1cccc(c1)C(=O)N1CCN(Cc3cccnc3)C[C@H](C1)O2 [Compound 66, (36R)-16-(2,6-dimethylphenyl)-34-(pyridin-3-ylmethyl)-2-oxa-6-thia-7-aza-3(6,1)-diazepana-1(4,2)-pyrimidina-5(1,3)-benzenacycloheptaphan-4-one 6,6-dioxide]	3 to 30 µM	++ (++ is 30-60%)		
Cc1cccc(C)c1-c1cc2nc(n1)NS(=O)(=O)c1cccc(c1)C(=O)N1CCN(C(=O)CC34CC5CC(CC(C5)C3)C4)C[C@H](C1)O2 [Compound 79, (16R)-18-[2-(Adamantan-1-yl)acetyl]-12-(2,6-dimethylphenyl)-15-oxa-8λ^6-thia-1,9,11,18,22-pentaazatetracyclo[14.4.1.13,7.110,14]tricosa-3(23),4,6,10,12,14(22)-hexaene-2,8,8-trione]			+++ (+++ is >600%)	< 1 µM
Cc1cccc(C)c1-c1cc2nc(n1)NS(=O)(=O)c1cccc(c1)C(=O)N1C[C@@H](CN(CC(C)(C)C)C[C@H]1CC(C)C)O2 [Compound 104, (16R,20R)-12-(2,6-Dimethylphenyl)-18-(2,2-dimethylpropyl)-20-(2-methylpropyl)-15-oxa-8λ^6-thia-1,9,11,18,22-pentaazatetracyclo[14.4.1.13,7.110,14]tricosa-3(23),4,6,10,12,14(22)-hexaene-2,8,8-trione]			+++ (+++ is >600%)	< 1 µM
Cc1cccc(C)c1-c1cc2nc(n1)NS(=O)(=O)c1cccc(c1)C(=O)N1CCN(Cc3cn(C)nc3C)C[C@@H]1CO2 [Compound 276]		++ (++ is 30-60%)		
Cc1cccc(C)c1-c1cc2nc(n1)NS(=O)(=O)c1cccc(c1)C(=O)N1CCN(C)CC(C1)O2 (centres unmarked) [Compound 63]	3 to 30 µM	+++ (+++ is >60%)		
Cc1cccc(C)c1-c1cc2nc(n1)NS(=O)(=O)c1cccc(c1)C(=O)N1CCN(CCc3ccccc3)C[C@@H]1CO2 [Compound 299]	< 1 µM	++ (++ is 30-60%)		
Cc1cccc(C)c1-c1cc2nc(n1)NS(=O)(=O)c1cccc(c1)C(=O)N1CCN(C(C)C)CC1C(Cc1ccccc1)O2 (centres unmarked) [Compound 174, 9-benzyl-13-(2,6-dimethylphenyl)-6-(propan-2-yl)-10-oxa-17λ^6-thia-3,6,14,16,23-pentaazatetracyclo[16.3.1.111,15.03,8]tricosa-1(22),11,13,15(23),18,20-hexaene-2,17,17-trione]			+++ (+++ is >600%)	< 1 µM
CCN1CCN2C[C@@H](C1)Oc1cc(-c3c(C)cccc3C)nc(n1)NS(=O)(=O)c1cccc(c1)C2=O [Compound 74, (16R)-12-(2,6-Dimethylphenyl)-18-ethyl-15-oxa-8λ^6-thia-1,9,11,18,22-pentaazatetracyclo[14.4.1.13,7.110,14]tricosa-3(23),4,6,10,12,14(22)-hexaene-2,8,8-trione]			+++ (+++ is >600%)	1 to 3 µM
Cc1cccc(C)c1-c1cc2nc(n1)NS(=O)(=O)c1cccc(c1)C(=O)N1CC(CCCO2)CC1(C)C (centres unmarked) [Compound 356]			++ (++ is 30-60%)	3 to 30 µM
Cc1cccc(C)c1-c1cc2nc(n1)NS(=O)(=O)c1cccc(c1)C(=O)N1CCN(Cc3cccc(O)c3)C[C@@H]1CO2 [Compound 272]	3 to 30 µM	+++ (+++ is >60%)		
Cc1cccc(C)c1-c1cc2nc(n1)NS(=O)(=O)c1cccc(c1)CN1CC(CN(C3CCC(F)(F)CC3)CC1=O)O2 (centres unmarked) [Compound 78, 18-(4,4-Difluorocyclohexyl)-12-(2,6-dimethylphenyl)-15-oxa-8λ^6-thia-1,9,11,18,22-pentaazatetracyclo[14.4.1.13,7.110,14]tricosa-3(23),4,6,10,12,14(22)-hexaene-8,8,20-trione]			++ (++ is 30-60%)	< 1 µM
Cc1cccc(C)c1-c1cc2nc(n1)NS(=O)(=O)c1cccc(c1)C(=O)N1CCN(CCC(C)CC(C)(C)C)CC(C1)O2 (centres unmarked) [Compound 62]	< 1 µM	+++ (+++ is >60%)		
Cc1cccc(C)c1-c1cc2nc(n1)NS(=O)(=O)c1cccc(c1)C(=O)N1CC(CC(c3ccccc3)C1)O2 (single isomer, unassigned) [Compound 224, 18-(2,6-dimethylphenyl)-5-phenyl-2-oxa-14λ^6-thia-7,15,17,20-tetraazatetracyclo[14.3.1.13,7.19,13]docosa-1(19),9(21),10,12,16(20),17-hexaene-8,14,14-trione]	< 1 µM	++ (++ is 30-60%)		
COC(=O)C1CC2CN(C1)C(=O)Nc1cccc(c1)S(=O)(=O)Nc1nc(cc(-c3c(C)cccc3C)n1)O2 (centres unmarked) [Compound 252]	1 to 3 µM	++ (++ is 30-60%)		
Cc1cccc(C)c1-c1cc2nc(n1)NS(=O)(=O)c1cccc(c1)C(=O)N1CCN(C3CCC4(CC3)COC4)C[C@H](C1)O2 [Compound 41, (16R)-12-(2,6-Dimethylphenyl)-18-{2-oxaspiro[3.5]nonan-7-yl}-15-oxa-8λ^6-thia-1,9,11,18,22-pentaazatetracyclo[14.4.1.13,7.110,14]tricosa-3(23),4,6,10,12,14(22)-hexaene-2,8,8-trione]			+++ (+++ is >600%)	< 1 µM
Cc1cccc(C)c1-c1cc2nc(n1)NS(=O)(=O)c1cccc(c1)C(=O)N1CCCC1CO2 (centres unmarked) [Compound 301]		+ (+ is <300%)		
Cc1cccc(C)c1-c1cc2nc(n1)NS(=O)(=O)c1cccc(c1)C(=O)N1CC(CCC1c1ccccc1)O2 (single isomer, unassigned) [Compound 225, 18-(2,6-dimethylphenyl)-6-phenyl-2-oxa-14λ^6-thia-7,15,17,20-tetraazatetracyclo[14.3.1.13,7.19,13]docosa-1(19),9(21),10,12,16(20),17-hexaene-8,14,14-trione]	< 1 µM	++ (++ is 30-60%)		
Cc1cccc(C)c1-c1cc2nc(n1)NS(=O)(=O)c1cccc(c1)CCC(=O)N1CCCC(C1)O2 (centres unmarked) [Compound 353]		+ (+ is <300%)		
